According to patent publication US11939314B2, “Quinolin-2-one derivatives” (MERCK PATENT GMBH, priority 2016, dated 2024):

Tests used:
[1] = target: T1, c-Kit(V654A) (Homo sapiens, UniProt P10721, V654A); test: c-Kit(V654A) assay; assay type: biochemical; settings: recombinant human c-Kit aa 544-end, 200 μM ATP, 1.4E-06 means 1.4×10^−6, read-out: Inhibition (IC50) of c-KIT (V654A)
T1 construct: amino acids 544-end containing the V654A mutation; GST (N)
Method in brief: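 Radiometric filter-binding read-out: substrate 33P incorporation counted by scintillation after P30 filtermat washes in 75 mM phosphoric acid and methanol. Enzyme: N-GST recombinant human c-Kit aa 544-end carrying V654A.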

[2] = target: T2, PDGFRalpha(V561D) (Homo sapiens, UniProt P16234, V561D); test: PDGFRalpha(V561D) assay; assay type: biochemical; settings: recombinant human PDGFRalpha aa 550-end, 200 μM ATP, 1.4E-06 means 1.4×10^−6, read-out: Inhibition (IC50) of PDGFRα (V561D)
T2 construct: recombinant human PDGFRalpha, amino acids 550end containing the V561 D mutation; 6His (N)
Method in brief: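 Radiometric filter-binding assay: substrate phosphorylation by recombinant N-His-tagged human PDGFRα 550-end V561D was quenched with 3% phosphoric acid after 40 min at room temperature, then counted.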

T2 sequence (P16234 550-1089 V561D): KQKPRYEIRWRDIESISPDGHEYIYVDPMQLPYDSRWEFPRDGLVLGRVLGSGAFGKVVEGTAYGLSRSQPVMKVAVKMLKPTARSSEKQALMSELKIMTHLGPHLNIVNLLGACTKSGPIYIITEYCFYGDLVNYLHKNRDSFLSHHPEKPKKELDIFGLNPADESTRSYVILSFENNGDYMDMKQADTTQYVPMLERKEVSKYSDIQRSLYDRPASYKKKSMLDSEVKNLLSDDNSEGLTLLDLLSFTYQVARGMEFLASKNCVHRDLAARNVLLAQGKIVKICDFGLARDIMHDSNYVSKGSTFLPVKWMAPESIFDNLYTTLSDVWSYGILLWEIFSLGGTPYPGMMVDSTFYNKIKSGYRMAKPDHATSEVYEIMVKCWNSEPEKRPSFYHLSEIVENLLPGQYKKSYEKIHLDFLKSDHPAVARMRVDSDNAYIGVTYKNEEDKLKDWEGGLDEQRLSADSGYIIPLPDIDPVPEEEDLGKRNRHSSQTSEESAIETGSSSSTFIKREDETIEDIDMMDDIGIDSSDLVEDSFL
T1 sequence (P10721 544-976 V654A): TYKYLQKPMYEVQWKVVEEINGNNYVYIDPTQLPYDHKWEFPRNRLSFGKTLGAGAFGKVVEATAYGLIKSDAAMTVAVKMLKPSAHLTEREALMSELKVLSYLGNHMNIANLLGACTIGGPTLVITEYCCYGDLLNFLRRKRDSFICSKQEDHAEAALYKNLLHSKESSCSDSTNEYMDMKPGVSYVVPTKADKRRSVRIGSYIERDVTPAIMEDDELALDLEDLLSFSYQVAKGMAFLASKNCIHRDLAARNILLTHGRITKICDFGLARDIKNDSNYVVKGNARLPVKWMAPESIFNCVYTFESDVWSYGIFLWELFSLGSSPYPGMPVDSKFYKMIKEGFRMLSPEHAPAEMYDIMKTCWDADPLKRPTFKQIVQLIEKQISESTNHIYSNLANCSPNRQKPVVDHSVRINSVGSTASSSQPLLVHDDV

| Structure (SMILES) | IC50 [1] [nM] | IC50 [2] [nM] |
| --- | --- | --- |
| CN1CCN(C(=O)c2ccc(-n3cc(-c4cc5c(F)cccc5[nH]c4=O)nn3)cc2)CC1 [A149, 5-fluoro-3-{1-[4-(4-methyl-piperazine-1-carbonyl)-phenyl]-1H-[1,2,3]triazol-4-yl}-1H-quinolin-2-one] | 6 | 12 |
| CN1CCN(C(=O)c2ccc(-n3cc(-c4cc5cccc(F)c5[nH]c4=O)nn3)cc2)CC1 [A150, 8-fluoro-3-{1-[4-(4-methyl-piperazine-1-carbonyl)-phenyl]-1H-[1,2,3]triazol-4-yl}-1H-quinolin-2-one] | 49 | 37 |
| CN1CCN(C(=O)c2ccc(-n3cc(-c4cc5cc(Cl)ccc5[nH]c4=O)nn3)cc2)CC1 [A151, 6-chloro-3-{1-[4-(4-methyl-piperazine-1-carbonyl)-phenyl]-1H-[1,2,3]triazol-4-yl}-1H-quinolin-2-one] | 3 | 1 |
| CN1CCN(C(=O)c2ccc(-n3cc(-c4cc5c(F)cc(F)cc5[nH]c4=O)nn3)cc2)CC1 [A152, 5,7-difluoro-3-{1-[4-(4-methyl-piperazine-1-carbonyl)-phenyl]-1H-[1,2,3]triazol-4-yl}-1H-quinolin-2-one] | 11 | 23 |
| CN1CCN(C(=O)c2cccc(-n3cc(-c4cc5cc(F)ccc5[nH]c4=O)nn3)c2)CC1 [A153, 6-Fluoro-3-{1-[3-(4-methyl-piperazine-1-carbonyl)-phenyl]-1H-[1,2,3]triazol-4-yl}-1H-quinolin-2-one] | 24 | 4 |
| CN1CCN(C(=O)c2ccc(-n3cc(-c4cc5ccc(Cl)cc5[nH]c4=O)nn3)cc2)CC1 [A154, 7-chloro-3-{1-[4-(4-methyl-piperazine-1-carbonyl)-phenyl]-1H-[1,2,3]triazol-4-yl}-1H-quinolin-2-one] | 11 | 3 |
| CN1CCCN(c2ccc(-n3cc(-c4cc5cc(F)cnc5[nH]c4=O)nn3)cc2)CC1 [A155, 6-fluoro-3-{1-[4-(4-methyl-[1,4]diazepan-1-yl)-phenyl]-1H-[1,2,3]triazol-4-yl}-1H-[1,8]naphthyridin-2-one] | 81 | 61 |

Second part, the compound after the results:

| IC50 [1] [nM] | IC50 [2] [nM] | Structure (SMILES) |
| --- | --- | --- |
| 26 | 40 | CN1CCN(C(=O)c2ccc(-n3cc(-c4cc5c(F)c(F)ccc5[nH]c4=O)nn3)cc2)CC1 [A156, 5,6-difluoro-3-{1-[4-(4-methyl-piperazine-1-carbonyl)-phenyl]-1H-[1,2,3]triazol-4-yl}-1H-quinolin-2-one] |
| 5.9 | 0.32 | CN1CCN(C(=O)c2ccc(-n3cc(-c4cc5cc(F)c(F)cc5[nH]c4=O)nn3)cc2)CC1 [A157, 6,7-difluoro-3-{1-[4-(4-methyl-piperazine-1-carbonyl)-phenyl]-1H-[1,2,3]triazol-4-yl}-1H-quinolin-2-one] |
| 35 | 15 | CN1CCC(C(=O)c2ccc(-n3cc(-c4cc5cc(F)ccc5[nH]c4=O)nn3)cc2)CC1 [A161, 6-fluoro-3-{1-[4-(1-methyl-piperidine-4-carbonyl)-phenyl]-1H-[1,2,3]triazol-4-yl}-1H-quinolin-2-one] |
| 82 | 97 | CN1CCN(CCCOc2ccc(-n3cc(-c4cc5cc(F)c(F)cc5[nH]c4=O)nn3)cc2)CC1 [A162, 6,7-difluoro-3-(1-{4-[3-(4-methyl-piperazin-1-yl)-propoxy]-phenyl}-1H-[1,2,3]triazol-4-yl)-1H-quinolin-2-one] |
| 9.9 | 45 | CN1CCC(CCOc2ccc(-n3cc(-c4cc5cc(F)ccc5[nH]c4=O)nn3)cc2)CC1 [A163, 6-fluoro-3-(1-{4-[2-(1-methyl-piperidin-4-yl)-ethoxy]-phenyl}-1H-[1,2,3]triazol-4-yl)-1H-quinolin-2-one] |
| 8.4 | 11 | CN1CCC(C(=O)c2ccc(-n3cc(-c4cc5cc(F)c(F)cc5[nH]c4=O)nn3)cc2)CC1 [A164, 6,7-difluoro-3-{1-[4-(1-methyl-piperidine-4-carbonyl)-phenyl]-1H-[1,2,3]triazol-4-yl}-1H-quinolin-2-one] |
